The IC50 is the concentration that inhibits the measured activity by half. A higher IC50 goes with weaker potency in that assay.

From patent publication US20250177359A1, “COMPOUNDS FOR USE IN THE TREATMENT OF CANCER AND INFLAMMATORY CONDITIONS” (priority 2022, published 2025) come the findings set out here.

In this experiment the target is T1, PARP15 (Homo sapiens, UniProt Q460N3).
T1 sequence (Q460N3 1-678): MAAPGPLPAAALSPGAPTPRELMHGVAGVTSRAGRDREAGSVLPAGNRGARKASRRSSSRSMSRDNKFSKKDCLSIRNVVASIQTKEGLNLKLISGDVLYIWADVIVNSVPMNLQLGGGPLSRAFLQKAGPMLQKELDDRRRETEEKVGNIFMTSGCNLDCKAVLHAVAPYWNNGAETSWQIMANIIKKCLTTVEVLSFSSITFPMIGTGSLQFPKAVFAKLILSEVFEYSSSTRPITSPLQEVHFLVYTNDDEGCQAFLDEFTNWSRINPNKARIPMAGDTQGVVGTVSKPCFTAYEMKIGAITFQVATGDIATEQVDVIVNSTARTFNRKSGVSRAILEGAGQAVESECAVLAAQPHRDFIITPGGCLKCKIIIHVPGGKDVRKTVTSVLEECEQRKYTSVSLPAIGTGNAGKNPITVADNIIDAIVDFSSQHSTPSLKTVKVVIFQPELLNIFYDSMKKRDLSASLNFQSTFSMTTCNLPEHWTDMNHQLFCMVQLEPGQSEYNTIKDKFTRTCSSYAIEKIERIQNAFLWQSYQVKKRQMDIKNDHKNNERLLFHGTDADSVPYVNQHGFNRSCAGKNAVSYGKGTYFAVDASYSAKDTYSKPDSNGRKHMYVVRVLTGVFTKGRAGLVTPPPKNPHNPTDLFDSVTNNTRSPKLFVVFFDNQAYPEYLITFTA
The experiment in a line: biochemical.

On to `Nc1nnc2sc3cc(O)ccc3n12` [Compound 109, 3-Amino[1,2,4]triazolo[3,4-b][1,3]benzothiazol-7-ol], for which the IC50 was 680 nM. This lies in the sub-micromolar range.
